Experimental data from patent publication US20070249673A1, “Method for administering tolperisone” (priority 2006, published 2007).

Legend:
[1] = Food effect of tolperisone: open-label, single dose, 4-way crossover pharmacokinetic study in healthy male volunteers; conditions: for AUC0-oo / AUC0-tlast / Cmax / Tmax / t1/2 / λz: 150 mg single oral dose, plasma, mean ± SD
Description: The study was designed as an open-label, single dose, 4-way crossover study in 24 healthy male subjects. Randomization was performed according to the Latin Square Block design. Six subjects each were distributed to the four treatment arms. Each subject completed the study having received a single dose of 150 mg, 300 mg, and 450 mg of tolperisone once daily in a fasted state, and 150 mg of tolperisone with food. The wash-out period between study periods was at least seven days.
24 healthy male subjects were planned to participate in the study. […] The study group was composed of healthy male Caucasians, aged between 18-50 years, with a body mass index of 19-28 kg/m^2.
Tolperisone, 2-methyl-1-(4-methylphenyl)-3-(1-piperidinyl)-1-propanone, was supplied in coated tablets of 150 mg (“SPH-3047”, Sanochemia Pharmazeutica AG).
The dosage regimen was a four-way crossover. Within four treatment sequences, each subject received each of the following doses once.
Procedures from Day 1 until Day 3 were as follows (time points are detailed in the tabular schedule of trial procedures): • (i) An indwelling intravenous catheter was placed for blood sampling (without using heparin). • (ii) The study drug was administered (either 150, 300, or 450 mg of tolperisone) with 200 ml non-carbonated water in a standing position in a fasting state (intake of a standard breakfast not earlier than 90 minutes after dosing). For the food effect investigation, subjects received 150 mg tolperisone after food intake. • (iii) 12-lead ECG was taken both pre-dose, and at about 2 h post-dose (+15 min); ECG recordings were performed approximately 15 minutes before blood sampling. […] 64 blood samples for the determination of tolperisone and its main metabolite were drawn at the following times: pre-dose and 0.25, 0.5, 0.75, 1.0, 1.25, 1.5, 2, 3, 4, 8, 12, 24, 36, 48, and 72 hours post-administration (16 samples at each treatment).
On Day 1, meals were identical for all four study periods, with the exception of the “fed” study period during which a standardized breakfast was served 30 min prior to dosing.
In the non-fasted study period subjects received a standardized breakfast 30 min prior to dosing. The breakfast was a high fat breakfast according to FDA recommendations and was composed of the following food items: 2 slices of toasted white bread with butter, 2 eggs fried in butter, 2 slices of bacon, 2 ounces (1 oz=28.35 g) of “hash-browns” (fried, shredded potatoes), and 8 ounces of whole milk.
Assessment of Pharmacokinetics: For pharmacokinetic analysis, 7 ml of blood were collected by using Sarstedt monovettes (Sarstedt Ltd., Leicester, UK) or Vacutainers (Becton Dickenson).
The samples were immediately stored in ice water and centrifuged within 30 min following the collection of blood (1500×g, 10 minutes) at +4° C. temperature. The plasma from each sample was divided into two equal aliquots (approx. 2×1.5 ml), which were each transferred to a polypropylene tube, and identified by a coded label. The plasma samples were then stored in a freezer at a temperature of at least −70° C. until time of analysis.

[2] = Pharmacokinetic profile of tolperisone after single and multi-dosing (150 mg regimen over 7 days) in healthy subjects under fasted and fed conditions; conditions: for AUC(0-t) / AUC(inf) / Cmax / t½ / λz / AUC(0-6): mean ± SD; for Tmax: median
Description: Dosing Regimen: Subjects in each cohort received tolperisone according to the following regimen.
Blood samples for the measurement of the plasma concentrations of tolperisone and metabolites M1 (4-hydroxymethyltolperisone) and M4 (4-carboxy-tolperisone) were collected at the times shown in Table 8.
Bioanalytical: Plasma concentrations of tolperisone and metabolites M1 and M4 were measured using a validated LC/MS/MS assay by Pharm-analyt Laboratory, Baden Austria. The limits of quantitation (LOQ) for tolperisone, Mi, and M4 in plasma were 0.2 ng/ML, and 0.01 μg/mL, respectively.
Pharmacokinetic Analyses: Pharmacokinetic parameters for tolperisone, M1, and M4 were calculated using non-compartmental analysis. Only plasma concentrations greater than or equal to the LOQ for the respective assay were used in the pharmacokinetic analyses. Actual blood sampling times were used in all pharmacokinetic analyses. […] All pharmacokinetic calculations were done using SAS® for Windows® Version 9.1.3.
The maximum plasma concentration (Cmax) and time to Cmax (Tmax) were taken directly from the data. The elimination rate constant, λz, was calculated as the negative of the slope of the terminal log-linear segment of the plasma concentration-time curve. The range of data to be used for each subject and treatment was determined by visual inspection of a semi-logarithmic plot of concentration versus time. Elimination half-life (t½) was calculated according to the following equation: [formula] Area under the curve to the final sample with a concentration greater than or equal to the LOQ [(AUC(0-t)] was calculated using the linear trapezoidal method and extrapolated to infinity [AUC(inf)] using: [formula] where Ctf is the final concentration≧LOQ.
The maximum plasma concentration (Cmax) and time to Cmax (Tmax) were taken directly from the data.
The maximum plasma concentration (Cmax) and time to Cmax (Tmax) were taken directly from the data. The elimination rate constant, λz, and half-life, t½, were calculated as described for the 0800 dose on Day 1 (above). Areas under the curve to the final sample with a concentration greater than or equal to the LOQ [(AUC(O-t)] and over the 6-hour dosing interval [AUC(0-6)] were calculated using the linear trapezoidal method.

[3] = Day 1 - 0800 Dose, Fasted, Females
[4] = Day 1 - 0800 Dose, Fasted, Males
[5] = Day 1 - 0800 Dose, Fasted, both sexes
[6] = Day 1 - 0800 Dose, Fed, Females
[7] = Day 1 - 0800 Dose, Fed, both sexes
[8] = Day 1, fed vs fasted, both sexes
[9] = Day 2 - 2200 Dose, Fasted, Females
[10] = Day 2 - 2200 Dose, Fasted, Males
[11] = Day 2 - 2200 Dose, Fasted, both sexes
[12] = Day 2 - 2200 Dose, Fed, Females
[13] = Day 2 - 2200 Dose, Fed, both sexes
[14] = Day 7 - 0800 Dose, Fasted, Females
[15] = Day 7 - 0800 Dose, Fasted, Males
[16] = Day 7 - 0800 Dose, Fasted, both sexes
[17] = Day 7 - 0800 Dose, Fed, Females
[18] = Day 7 - 0800 Dose, Fed, both sexes
[19] = Day 7 - 2200 Dose, Fasted, Females
[20] = Day 7 - 2200 Dose, Fasted, Males
[21] = Day 7 - 2200 Dose, Fasted, both sexes
[22] = Day 7 - 2200 Dose, Fed, Females
[23] = Day 7 - 2200 Dose, Fed, both sexes

## CC(CN1CCCCC1)C(=O)c1ccc(CO)cc1 (centres unmarked) [4-HM-Tolperisone, 4-hydroxymethyl-tolperisone]
[1]; fasted state
  AUC0-oo: 1.82 ± 1.09 ng·h/mL
  AUC0-tlast: 1.20 ± 1.01 ng·h/mL
  Cmax: 1.70 ± 1.66 ng/mL
  Tmax: 0.68 h
  t1/2: 0.55 ± 0.21 h
  λz: 1.45 ± 0.51 h⁻¹
[1]; fed state (high fat breakfast)
  AUC0-oo: 3.92 ± 2.37 ng·h/mL
  AUC0-tlast: 2.69 ± 2.18 ng·h/mL
  Cmax: 2.56 ± 3.04 ng/mL
  Tmax: 1.40 ± 0.77 h
  t1/2: 1.19 ± 0.80 h
  λz: 0.95 ± 0.90 h⁻¹
[1]; fed state (high fat breakfast), listed as 4-HM-tolperisone
  Tmax: 1.38 h
[1]; Fed/fasted, 150 mg
  AUC0-oo, geometric mean for the ratio 150 mg fed/150 mg fasted, point estimate: 1.95
  AUC0-tlast, geometric mean for the ratio 150 mg fed/150 mg fasted, point estimate: 2.27
  Cmax, geometric mean for the ratio 150 mg fed/150 mg fasted, point estimate: 1.23
[1]; all studied doses (150, 300, and 450 mg)
  concentration in blood plasma eight hours after study drug administration: below the limit of quantification
[2]; [3]
  AUC(0-t): 3.98 ± 2.48 (3) h · ng/mL
  AUC(inf): 4.10 ± 2.55 (3) h · ng/mL
  Cmax: 2.06 ± 1.44 (3) ng/mL
  t½: 1.03 ± 0.090 (3) h
  λz: 0.6787 ± 0.0627 (3) h^−1
  Tmax: 1.00 (3) h
[2]; [4]
  AUC(0-t): 3.49 ± 1.47 (7) h · ng/mL
  AUC(inf): 3.60 ± 1.48 (7) h · ng/mL
  Cmax: 2.30 ± 1.50 (7) ng/mL
  t½: 1.16 ± 0.18 (7) h
  λz: 0.6081 ± 0.0792 (7) h^−1
  Tmax: 0.75 (7) h
[2]; [5]
  AUC(0-t): 3.63 ± 1.69 (10) h · ng/mL
  AUC(inf): 3.75 ± 1.72 (10) h · ng/mL
  Cmax: 2.22 ± 1.40 (10) ng/mL
  t½: 1.12 ± 0.17 (10) h
  λz: 0.6293 ± 0.0788 (10) h^−1
  Tmax: 0.88 (10) h
[2]; [6]
  AUC(0-t): 8.23 ± 5.46 (4) h · ng/mL
  AUC(inf): 8.64 ± 5.79 (4) h · ng/mL
  Cmax: 3.29 ± 2.36 (4) ng/mL
  t½: 1.04 ± 0.12 (4) h
  λz: 0.6700 ± 0.0749 (4) h^−1
  Tmax: 2.00 (4) h
[2]; Day 1 - 0800 Dose, Fed, Males
  AUC(0-t): 4.22 ± 1.08 (6) h · ng/mL
  AUC(inf): 4.31 ± 1.12 (6) h · ng/mL
  Cmax: 3.07 ± 0.68 (6) ng/mL
  t½: 1.03 ± 0.09 (6) h
  λz: 0.6791 ± 0.0554 (6) h^−1
  Tmax: 0.88 (6) h
[2]; [7]
  AUC(0-t): 5.82 ± 3.86 (10) h · ng/mL
  AUC(inf): 6.05 ± 4.11 (10) h · ng/mL
  Cmax: 3.16 ± 1.46 (10) ng/mL
  t½: 1.03 ± 0.10 (10) h
  λz: 0.6754 ± 0.0599 (10) h^−1
  Tmax: 1.00 (10) h
[2]; [8]
  increase in the mean value for AUC(inf) on administration with food: 61%
  increase in the mean value for Cmax on administration with food: 42%
[2]; [9]
  Cmax: 1.83 ± 0.70 (3) ng/mL
  Tmax: 0.75 (3) h
[2]; [10]
  Cmax: 1.08 ± 0.68 (7) ng/mL
  Tmax: 1.50 (7) h
[2]; [11]
  Cmax: 1.30 ± 0.74 (10) ng/mL
  Tmax: 1.25 (10) h
[2]; [12]
  Cmax: 2.23 ± 1.99 (4) ng/mL
  Tmax: 1.25 (4) h
[2]; Day 2 - 2200 Dose, Fed, Males
  Cmax: 1.24 ± 0.60 (6) ng/mL
  Tmax: 1.00 (6) h
[2]; [13]
  Cmax: 1.64 ± 1.33 (10) ng/mL
  Tmax: 1.00 (10) h
[2]; Day 7, 0800 dose, both sexes
  mean AUC(0-6) under fed conditions higher than fasted: 12%
  mean Cmax under fed conditions lower than fasted: 12%
[2]; [14]
  AUC(0-6): 5.78 ± 2.18 (3) h · ng/mL
  Cmax: 3.79 ± 1.46 (3) ng/mL
  t½: 1.04 ± 0.115 (3) h
  λz: 0.6728 ± 0.0705 (3) h^−1
  Tmax: 0.75 (3) h
[2]; [15]
  AUC(0-6): 4.13 ± 2.37 (7) h · ng/mL
  Cmax: 2.42 ± 1.62 (7) ng/mL
  t½: 1.23 ± 0.22 (7) h
  λz: 0.5766 ± 0.0978 (7) h^−1
  Tmax: 0.75 (7) h
[2]; [16]
  AUC(0-6): 4.63 ± 2.33 (10) h · ng/mL
  Cmax: 2.83 ± 1.63 (10) ng/mL
  t½: 1.18 ± 0.21 (10) h
  λz: 0.6054 ± 0.0982 (10) h^−1
  Tmax: 0.75 (10) h
[2]; [17]
  AUC(0-6): 7.28 ± 4.43 (4) h · ng/mL
  Cmax: 3.67 ± 1.97 (4) ng/mL
  t½: 1.08 ± 0.35 (2) h
  λz: 0.6783 ± 0.2222 (2) h^−1
  Tmax: 1.13 (4) h
[2]; Day 7 - 0800 Dose, Fed, Males
  AUC(0-6): 3.82 ± 1.23 (6) h · ng/mL
  Cmax: 1.70 ± 0.67 (6) ng/mL
  t½: 1.08 ± 0.32 (6) h
  λz: 0.6791 ± 0.1380 (6) h^−1
  Tmax: 1.00 (6) h
[2]; [18]
  AUC(0-6): 5.20 ± 3.25 (10) h · ng/mL
  Cmax: 2.49 ± 1.61 (10) ng/mL
  t½: 1.08 ± 0.31 (08) h
  λz: 0.6789 ± 0.1437 (08) h^−1
  Tmax: 1.00 (10) h
[2]; [19]
  Cmax: 3.43 ± 2.15 (3) ng/mL
  Tmax: 1.00 (3) h
[2]; [20]
  Cmax: 1.78 ± 1.23 (7) ng/mL
  Tmax: 1.03 (7) h
[2]; [21]
  Cmax: 2.27 ± 1.64 (10) ng/mL
  Tmax: 1.00 (10) h
[2]; [22]
  Cmax: 2.35 ± 1.97 (4) ng/mL
  Tmax: 1.25 (4) h
[2]; Day 7 - 2200 Dose, Fed, Males
  Cmax: 2.09 ± 1.33 (6) ng/mL
  Tmax: 0.88 (6) h
[2]; [23]
  Cmax: 2.20 ± 1.51 (10) ng/mL
  Tmax: 1.00 (10) h
[2]; seven days of dosing, up to 150 mg three times daily
  accumulation (increase in Cmax over the seven days of dosing): little or no accumulation
[2]; summary, not dependent on sex, food or duration of dosing
  mean elimination half-life: ~1.1 h
